Numbers after ± are expanded uncertainties.
Details: Liquid, Ebulliometric method (Recirculating still)

Row | SMILES | vapor or sublimation pressure (389.1 K) | vapor or sublimation pressure (404.15 K) | vapor or sublimation pressure (413.57 K) | vapor or sublimation pressure (417.53 K) | vapor or sublimation pressure (433.71 K) | vapor or sublimation pressure (443.3 K)
1 | CCCCCCCCCC(=O)OC [methyl decanoate] | 2 ± 0.21 kPa | 4 ± 0.42 kPa | 6 ± 0.63 kPa | – | – | –
2 | CCCCCCCCCCCC(=O)OC [methyl dodecanoate] | – | – | – | 2 ± 0.21 kPa | 4 ± 0.42 kPa | 6 ± 0.63 kPa
